Assay results: patent US11932898B2, “Precision therapeutic biomarker screening for cancer” (UNIVERSITY OF MIAMI, priority 2016, dated 2024)
Each block holds one compound with its values, some of them ahead of it.

Assays:
human tumor cell lines = experiment: component-wise IC50 values of the SANGER drug sensitivity dataset, clustered by generalized FMMR cell line components; type: cell-based; conditions: for magnitude of IC50s for overlapping component 12: component-wise IC50 boxplots, FIG. 11A-11E, cell line components 1, 2 and 12
Excerpt: Cancer cell lines have frequently been used as a convenient way of conducting such studies. For a systematic search of therapeutic biomarkers to a variety of cancer drugs, Garnett et al. (2012) screened 639 human tumor cell lines which represent much of the tissue-type and genetic diversity of human cancers with 130 drugs. These drugs, including approved drugs, drugs in development as well as experimental tool compounds, cover a wide range of targets and processes involved in cancer biology. In the Garnett et al. work, a range of 275-507 cell lines were screened for each drug. The effect of a 72 h drug treatment on cell viability was used to derive measures of drug sensitivity, including the half-maximal inhibitory concentration (IC50). In addition, the cell lines underwent sequencing of 64 known cancer genes, genome-wide analysis of copy number gains and losses, and expression profiling of 14,500 genes.
We applied the innovative techniques herein to analyzing the SANGER high throughput drug sensitivity dataset for cancer. […] The responses, made up with IC50 values from pairwise drug-cell-line screening, has some missing values. Therefore the data was first filtered by removing cell lines for which less than 50% of the drugs were tested, resulting in 591 cell lines remaining. In the remaining data, about 37.4% of the cell lines are with missing values. These missing values are imputed via the random forest imputation algorithm (Ishwaran, Kogalur, Blackstone and Lauer 2008; Stekhoven and Buhlmann 2012).
In order to identify patterns of cancer-specific therapeutic biomarkers, we employed method gEMseplasso in the analysis. […]
In the second step, the process uses an affinity-propagation clustering (APC) algorithm (Frey and Dueck 2007) to group the 140 drugs based on results from the first step. […] The pair-wise similarity matrix required by the algorithm as input data is calculated from the Euclidean distance between Za and Zb. […] The pair-wise similarity matrix is calculated from the Euclidean distance between Bk^a and Bk^b for k=1, . . . , 3. […]

soft tissue cancer = soft tissue cancer resistant to standard chemotherapy (doxyrubicin); small sample size phase II study; cited from earlier work
[1] = system: chronic myeloid leukemia (CML); conditions: cited from earlier work

component with highest IC50s (human tumor cell lines; among cell line components 1, 2, and 12): component 2 | magnitude of IC50s for overlapping component 12 (human tumor cell lines): between those for component 1 and 2
SMILES: COc1cc2ncn(-c3cc(OCc4ccccc4C(F)(F)F)c(C(N)=O)s3)c2cc1OC [GW843682X]

SMILES: Nc1ccn([C@@H]2O[C@H](CO)[C@@H](O)C2(F)F)c(=O)n1 [Gemcitabine]
effectiveness in soft tissue cancer (soft tissue cancer): effective

SMILES: Nc1ccccc1NC(=O)c1ccc(CNC(=O)OCc2cccnc2)cc1 [MS.275]
magnitude of IC50s for overlapping component 12 (human tumor cell lines): between those for component 1 and 2

SMILES: Cc1ccc(NC(=O)c2ccc(CN3CCN(C)CC3)cc2)cc1Nc1nccc(-c2cccnc2)n1 [imatinib]
blood counts ([1]; CML patients who had exhausted standard treatment options, tested in 1998): returning to normal | five-year survival rate ([1]; CML patients): 95%
